In patent US12642274B2, “Insect neuropeptides 8” (Solasta Bio Limited, priority 2023, dated 2026):
Square brackets hold non-standard residues; d marks the D form. pGlu = O=C1CC[C@@H](C(=O)O)N1

Tests used:
[1] = test system: Plutella xylostella; assay: Leaf dip assay (IRAC method 018, Chinese cabbage); format: in vivo; settings: unformulated peptide 2×10^−4 M in 0.5% DMSO, 8% ACN, 0.1% Tween-80 in water, 120 hours; Acetamiprid 0.005% as comparator; conducted by FERA (FIG. 5)
Method: Peptides were tested in a leaf dip bioassay using Chinese cabbage on IRAC method 018 against Plutella xylostella. Peptide concentration at 2×10^−4 M in a solution of 0.5% DMSO, 8% ACN, 0.1% Tween-80 in water. Acetamiprid (pesticide) was tested at 0.005%. Vehicle control comprised 0.5% DMSO, 8% ACN, 0.1% Tween-80 in water. Peptide SB-P-86 was tested by a Contract Research Organisation, FERA Science Ltd. The activity of SB-P-86 is shown in FIG. 5; SB-P-86 has good activity whilst being eco-friendly and targeted to specific pests unlike broad spectrum chemical insecticides such as Acetamiprid.

[2] = test system: Spodoptera frugiperda; assay: Lepidoptera artificial diet assay; format: in vivo; settings: unformulated peptide 1×10^−4M in artificial diet, L1 larvae, one larva per cell, n=10, 168 hrs; compared to negative control vehicle and DDT (FIG. 4)
Description: Frontier Lepidoptera Artificial diet was made up by preparing agar at 1% and then mixing it with artificial diet powder. Peptide solution was aliquoted in 10 cells and diet poured straight onto it. The final concentration of the peptide was 1×10^−4M, and each peptide was aliquoted in 10 cells. Once the dict solidified and cooled down, one L1 Spodoptera frugiperda larvae was infested in each cell. The trays were sealed with heat and let larva were allowed to develop for 168 hrs. Finally, pupation and mortality were scored for. Lepidoptera artificial diet assays were performed with SB-P-86, and compared to a negative control vehicle and the insecticide dichlorodiphenyltrichloroethane (DDT).

For “[Pyr]-LTFTSSWGG-[NH2] ([pGlu]LTFTSSWGG-NH2; SMILES CC(C)C[C@H](NC(=O)[C@@H]1CCC(=O)N1)C(=O)N[C@H](C(=O)N[C@@H](Cc1ccccc1)C(=O)N[C@H](C(=O)N[C@@H](CO)C(=O)N[C@@H](CO)C(=O)N[C@@H](Cc1c[nH]c2ccccc12)C(=O)NCC(=O)NCC(N)=O)[C@@H](C)O)[C@@H](C)O) [SB-P-86, AKH peptide according to the invention]”, the “activity (leaf dip bioassay)” value [1] was “good activity” and the “activity (pupation and mortality scored)” value [2] was “much higher activity”.
